Results from article PMC10975012, “The Active Glucuronide Metabolite of the Brain Protectant IMM-H004 with Poor Blood–Brain Barrier Permeability Demonstrates a High Partition in the Rat Brain via Multiple Mechanisms” (Pharmaceutics, 2024).
Where two headings read alike, the source gives them in different places.

Experiments:
OATP = assay: Identification of transporters using inhibitors in hCMEC/D3 cells: OATP; assay type: cell-based, human; conditions: substrate 10 μmol/L, inhibitor 100 μmol/L
Method: The toxicity of all compounds, including inhibitors and substrates, toward hCMEC/D3 cells, was assessed using the 3-(4,5-Dimethylthiazol-2-yl)-2,5-diphenyltetrazolium bromide (MTT) reduction assay as described previously. To assess the effects of pyrilamine-sensitive proton-coupled organic cation (H^+/OC) antiporter, organic anion transporter (OAT), organic anion-transporting polypeptides (OATPs), organic cation transporter (OCT), and novel organic cation–carnitine transporter (OCTN) inhibitors on the uptake process, IMM-H004 or IMM-H004G (10 µmol/L) combined with the inhibitors were added to the medium after preincubating the cells with the inhibitors for 30 min. For evaluating the impact of the multidrug and toxin extrusion transporter (MATE), P-glycoprotein (P-gp), multidrug resistance protein (MRP), and breast cancer resistance protein (BCRP) on the uptake, IMM-H004 or IMM-H004G (10 µmol/L) was preincubated with the cells for 2 h before the addition of the inhibitors. After removing the supernatant, the cells were washed twice with prewarmed HBSS and incubated with fresh HBSS for 20 min. At the end of incubation, the supernatants were collected. […] The protein content of the lysed cells was determined using a bicinchoninic acid (BCA) assay kit (Beyotime Inc., Shanghai, China). The results were expressed as a percentage of the vehicle control.

OATP1B3 = target: T1, OATP1B3 (Homo sapiens, UniProt Q9NPD5); assay: Uptake in MDCKⅡ-OATP1B3 cells; assay type: cell-based; conditions: MDCKⅡ-OATP1B3, 30, 60 µmol/L, 20 or 40 min
T1 construct: expressed in transfected cells; host or cells: MDCKII
T1 sequence (Q9NPD5 1-702): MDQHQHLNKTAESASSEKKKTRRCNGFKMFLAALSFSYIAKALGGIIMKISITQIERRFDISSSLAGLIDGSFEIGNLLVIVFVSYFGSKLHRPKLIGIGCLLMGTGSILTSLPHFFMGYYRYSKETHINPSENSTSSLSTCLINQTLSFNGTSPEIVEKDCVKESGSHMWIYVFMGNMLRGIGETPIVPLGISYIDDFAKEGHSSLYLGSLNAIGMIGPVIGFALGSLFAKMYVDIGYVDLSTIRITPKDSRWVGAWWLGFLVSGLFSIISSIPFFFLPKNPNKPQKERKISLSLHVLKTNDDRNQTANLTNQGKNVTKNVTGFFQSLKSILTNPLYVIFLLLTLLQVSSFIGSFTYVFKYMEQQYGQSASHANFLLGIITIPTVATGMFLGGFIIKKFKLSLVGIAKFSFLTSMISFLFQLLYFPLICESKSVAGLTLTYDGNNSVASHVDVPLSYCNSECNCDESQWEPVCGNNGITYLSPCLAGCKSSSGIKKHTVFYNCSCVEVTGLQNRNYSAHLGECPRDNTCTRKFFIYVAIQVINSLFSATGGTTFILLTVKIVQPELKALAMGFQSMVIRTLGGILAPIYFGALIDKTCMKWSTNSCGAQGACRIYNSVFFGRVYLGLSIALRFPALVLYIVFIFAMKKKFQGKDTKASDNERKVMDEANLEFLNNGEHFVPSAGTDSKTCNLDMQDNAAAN
Method: Figure S4 Uptake of IMM-H004G in MDCKⅡ-OATP1B1 and MDCKⅡ-OATP1B3 cells. (a)
RSV (rosuvastatin, 30 µmol/L) is used as a positive group in MDCKⅡ-OATP1B1 cells. (b)
E17βG (estradiol-17β-glucuronide, 5 µmol/L) is used as a positive group in
MDCKⅡ-OATP1B3 cells. (c) IMM-H004G (30, 60 µmol/L) was incubated with
MDCKⅡ-OATP1B1 and MDCKⅡ-OATP1B3 cells for 20 or 40 min. The OATP
pan-inhibitor CsA (cyclosporin A) is 10 µmol/L. n=3 for positive substrates, and n=2 for
IMM-H004G. ***p < 0.001, **p < 0.01, *p < 0.05 vs. control group. ns, not significant.
(1 picture or pasted object on this page, not shown here)

SH-SY5Y cells = assay: In vitro metabolism in human brain cells (SH-SY5Y); assay type: in vitro ADME; conditions: IMM-H004 1–100 μmol/L
Method: (§1) SH-SY5Y, HEB, and hCMEC/D3 cells were utilized to investigate the in vitro metabolism of IMM-H004 and IMM-H004G in the brain. SH-SY5Y and HEB cells were cultured routinely in Dulbecco’s modified Eagle’s medium (DMEM) containing 10% fetal bovine serum and a 100 U/mL penicillin–100 μg/mL streptomycin solution. hCMEC/D3 cells were seeded on collagen type I coated 24-well plates and cultured in EndoGRO™-MV complete medium following the manufacturer’s guidelines. The cells were incubated at 37 °C, with 5% CO2, and were maintained in a humidified environment. Once the confluence reached 70–80%, the cells were digested using a 0.25% trypsin–EDTA solution, centrifuged at 200× g for 5 min, and then resuspended in a fresh culture medium. For each experiment, after seeding and 24 h incubation, the cells were washed twice with a prewarmed culture medium, and then IMM-H004 or IMM-H004G (1–100 μmol/L) dissolved in the culture medium was added. Incubation was carried out at 37 °C for 5 h or 24 h. After incubation, the supernatants were collected. Subsequently, the cells were washed with cold HBSS three times and lysed in a RIPA lysis buffer (Beyotime Inc., Shanghai, China). The concentrations of IMM-H004 and IMM-H004G were determined by liquid chromatography with tandem mass spectrometry (LC-MS/MS).

hCMEC/D3 cells = assay: In vitro metabolism in human brain cells (hCMEC/D3); assay type: in vitro ADME; conditions: IMM-H004 1–100 μmol/L
Method: as §1

HEB cells = assay: In vitro metabolism in human brain cells (HEB); assay type: in vitro ADME; conditions: IMM-H004 1–100 μmol/L, up to 5 h
Method: as §1

P-gp = assay: Bidirectional transport in MDCKⅡ-MDR1 cell monolayers; assay type: in vitro ADME; conditions: dog
Method: To further validate the effect of P-gp on the transport of IMM-H004G or IMM-H004, MDCKⅡ-MDR1 cells were seeded onto polycarbonate membrane transwell inserts in 24-well plates and used for transport studies after 5 days or when the effective transepithelial electric resistance (TEER) values exceeded 300 Ω·cm^2. The monolayers were initially rinsed twice with HBSS. Subsequently, IMM-H004G or IMM-H004 (10 µmol/L) was added to either the apical or basolateral side of the monolayer. Aliquots of 50 µL were collected from the opposite compartment at various time points, covering a maximum duration of 120 min. Digoxin (5 μmol/L) was used as a positive substrate, while PSC833 (5 µmol/L) was used as an inhibitor in MDCKⅡ-MDR1 cells. The apparent permeability value (Papp) was calculated using the following equation:(2) Papp=dQ/dt/AC0 where dQ/dt is the slope of the cumulative transport amount over time during the study period. A is the base area of the insert, and C0 is the initial addition concentration.
The efflux ratio (ER) was calculated as follows:ER = Papp(B−A)/Papp(A−B) (3)

reduction of uptake by OATP inhibitor rifamycin (OATP) [%] | uptake increase in OATP1B3-overexpressing cells compared to control cells (OATP1B3) | production of IMM-H004G from IMM-H004 (SH-SY5Y cells) | production of IMM-H004G from IMM-H004 (hCMEC/D3 cells) | production of IMM-H004G from IMM-H004 (HEB cells) | efflux ratio at 120 min (P-gp; MDCK-MDR1, with PSC833 5 µmol/L, MDCKⅡ-MDR1, PSC833 5 µmol/L, read-out: efflux ratio (ER) in the presence of PSC833) | efflux ratio at 120 min (P-gp; MDCK-MDR1, MDCKⅡ-MDR1, no inhibitor, IMM-H004 10 µmol/L, digoxin 5 μmol/L, read-out: efflux ratio (ER)) | Structure (SMILES)
39.6 | did not exceed a tenfold increase | – | – | – | – | – | COc1cc(OC2OC(C(=O)O)C(O)C(O)C2O)cc2oc(=O)c(N3CCN(C)CC3)c(C)c12 (stereo not shown) [IMM-H004G]
– | – | not detected | not detected | depended on both time and concentration | 1.1 | 2.96 | COc1cc(O)cc2oc(=O)c(N3CCN(C)CC3)c(C)c12 [IMM-H004]
